Results: patent US8604206B2, “Compositions for preventing and/or treating degenerative disorders of the central nervous system” (Amicus Therapeutics, Inc., priority 2009, dated 2013)
Like-named read-outs stand apart in the source and are kept apart here.

How the values were obtained:
Rat pharmacokinetics = assay type: in vivo; conditions: male, Sprague-Dawley, plasma; for Cmax: read-out: Cmax
Description: Pharmacokinetic (PK) data was obtained in rats to assess the bioavailability of test compound. In particular, the following PK parameters were calculated: bioavailability as measured by area under the Concentration/Time curve (AUC), fraction of dose available (% F; further defined below), clearance (CL), volume of distribution (Vd), and half-life (t½). […] Three rats were used per dosing group. Blood was collected over a 24-hr period. The time points for blood collection after intravenous administration were: 0, 2.5, 5, 10, 15, 30, 45 min, 1, 2, 4, 8, 12, and 24 hrs; time points for blood collection after p.o. administrations were: 0, 5, 15, 30, 45 min, 1, 2, 3, 4, 8, 12, and 24 hrs. Plasma samples were analyzed for compound levels by LC-MS/MS at PPD. Raw data was analyzed by non-compartmental analysis in Win-nonLin to calculate VD, % F, CL, and t1/2.

[1] = target: recombinant human GCase (rhGCase; Cerezyme®) (Homo sapiens (Human), UniProt P04062, R534H); test: In vitro enzyme inhibition assay (4-MU-β-D-Glc substrate), inhibition constants; assay type: biochemical
Description: The binding affinity (defined here by Ki binding constant) of GCase for novel compounds of the present invention were empirically determined using enzyme inhibition assays. In brief, the enzyme inhibition assays used monitored the ability of a test compound to bind and prevent the hydrolysis of a fluorogenic substrate in a concentration-dependent mariner. Specifically, the enzyme activity of recombinant human GCase (rhGCase; Cerezyme®, Genzyme Corp.) was measured using the 4-methylumbelliferyl-β-D-glucopyranoside (4-MU-β-D-Glc) fluorogenic substrate in the absence or in the presence of varying amounts of each test compound. […] The enzyme inhibition assays were performed at both pH 7.0 (endoplasmic reticulum pH) and at pH 5.2 (lysosomal pH) to gain insight into the binding affinity (i.e., potency) of compounds for GCase in the endoplasmic reticulum and lysososome.
Various concentrations of test compounds were prepared in buffer “M” consisting of 50 mM sodium phosphate buffer with 0.25% sodium taurocholate at pH 7.0 and pH 5.2. Enzyme (Cerezyme®, a recombinant form of the human enzyme β-glucocerebrosidase) was also diluted in the same buffer “M” at pH 7.0 and pH 5.2. […] Five microliters of diluted enzyme was added to 15 μl of the various inhibitor concentrations or buffer “M” alone and incubated at 37° C. for 1 hour with 50 μl of the substrate preparation to assess β-glucosidase activity at pH 7.0 and pH 5.2. […] Fluorescence was measured on a plate reader for 1 sec/well using 355 nm excitation and 460 nm emission.

[2] = IV, 3 mg/kg free base, AUC0-12 hr, read-out: AUClast (hr*ng/ml), AUC0-12 hr
[3] = IV, 3 mg/kg free base, read-out: t1/2 (converted)
[4] = PO, 10 mg/kg free base, read-out: % F
[5] = PO, 10 mg/kg free base, read-out: t1/2 (converted)
[6] = PO, 30 mg/kg free base, AUC0-24 hr, read-out: AUClast (hr*ng/ml), AUC0-24 hr
[7] = PO, 30 mg/kg free base, read-out: % F
[8] = PO, 30 mg/kg free base, read-out: t1/2 (converted)
[9] = PO, 100 mg/kg free base, AUC0-24 hr, read-out: AUClast (hr*ng/ml), AUC0-24 hr
[10] = PO, 100 mg/kg free base, read-out: % F
[11] = PO, 100 mg/kg free base, read-out: t1/2 (converted)
[12] = intravenous, oral, summary of Tables 4A-D, read-out: half-life
[13] = po, summary of Tables 4A-D, read-out: oral bioavailability
[14] = pH 5.2, Cheng-Prusoff from IC50, read-out: Ki (μM) pH 5.2
[15] = pH 5.2, read-out: IC50 (μM) pH 5.2
[16] = pH 5.2, repeated in Table 3A, read-out: Ki pH 5.2
[17] = pH 5.2, repeated in Table 3B, read-out: Ki pH 5.2
[18] = pH 7.0, Cheng-Prusoff from IC50, read-out: Ki (μM) pH 7.0
[19] = pH 7.0, read-out: IC50 (μM) pH 7.0

Chain of recombinant human GCase (rhGCase; Cerezyme®) (P04062 40-536 R534H limits assumed): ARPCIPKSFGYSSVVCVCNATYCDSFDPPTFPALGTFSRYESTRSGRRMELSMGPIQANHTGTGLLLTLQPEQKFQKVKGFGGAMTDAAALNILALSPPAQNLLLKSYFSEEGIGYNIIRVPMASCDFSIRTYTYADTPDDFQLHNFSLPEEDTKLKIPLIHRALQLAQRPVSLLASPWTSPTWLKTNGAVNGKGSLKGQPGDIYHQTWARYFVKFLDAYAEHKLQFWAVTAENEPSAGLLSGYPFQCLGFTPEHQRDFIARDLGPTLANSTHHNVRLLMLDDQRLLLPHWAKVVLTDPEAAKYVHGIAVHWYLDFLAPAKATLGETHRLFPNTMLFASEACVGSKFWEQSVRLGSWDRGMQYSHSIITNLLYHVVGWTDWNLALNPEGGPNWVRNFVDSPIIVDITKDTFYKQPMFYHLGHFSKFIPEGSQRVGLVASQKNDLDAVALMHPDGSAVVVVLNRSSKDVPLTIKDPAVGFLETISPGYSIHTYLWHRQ

Row | Ki [1, 14] | IC50 [1, 15] | SMILES | Vd (Rat pharmacokinetics; IV, 3 mg/kg free base) | clearance (Rat pharmacokinetics; IV, 3 mg/kg free base) | AUC(0-t) (Rat pharmacokinetics; [2]) | Cmax (Rat pharmacokinetics; IV, 3 mg/kg free base) | half-life (Rat pharmacokinetics; [3]) | bioavailability (Rat pharmacokinetics; [4]) | Cmax (Rat pharmacokinetics; PO, 10 mg/kg free base) | half-life (Rat pharmacokinetics; [5]) | AUC(0-t) (Rat pharmacokinetics; [6]) | bioavailability (Rat pharmacokinetics; [7]) | Cmax (Rat pharmacokinetics; PO, 30 mg/kg free base) | half-life (Rat pharmacokinetics; [8]) | AUC(0-t) (Rat pharmacokinetics; [9]) | bioavailability (Rat pharmacokinetics; [10]) | Cmax (Rat pharmacokinetics; PO, 100 mg/kg free base) | half-life (Rat pharmacokinetics; [11]) | half-life (Rat pharmacokinetics; [12]) | bioavailability (Rat pharmacokinetics; [13]) | further results
1 |  |  | Cl.O[C@H]1[C@H](O)CNC[C@@H]1C(F)F [Cmpd 6, (3R,4R,5S)-5-(Difluoromethyl)piperidine 3,4-diol Hydrochloride] | 2.61 L/kg | 25.9 mL/min/kg | 2040 ng·h/mL | 2320 ng/mL | 1.1 h | 106% | 3360 ng/mL | 2.58 h | 21700 ng·h/mL | 101% | 10000 ng/mL | 2.75 h | 79400 ng·h/mL | 121% | 33200 ng/mL | 2.41 h | 1 to 4 h | 50 to 100% | AUC(0-t) (Rat pharmacokinetics; PO, 10 mg/kg free base, AUC0-12 hr, read-out: AUClast (hr*ng/ml), AUC0-12 hr): 6710 ng·h/mL
2 | 0.121 ± 0.0026 µM | 0.291 ± 0.006 µM | CC[C@@H](F)[C@H]1CNC[C@@H](O)[C@@H]1O.Cl [(3R,4R,5S)-5-((R)-1-fluoropropyl)-piperidine-3,4-diol hydrochloride] |  |  |  |  |  |  |  |  |  |  |  |  |  |  |  |  |  |  | Ki [1, 16]: 0.121 ± 0.0026 µM; Ki [1, 17]: 0.121 ± 0.0026 µM; Ki [1, 18]: 0.031 ± 0.0015 µM; IC50 [1, 19]: 0.06 ± 0.0029 µM
3 | 0.273 ± 0.012 µM | 0.659 ± 0.028 µM | O[C@@H]1[C@@H](Cc2ccccc2)CNC[C@H]1O [(3R,4R,5S)-5-benzyl-piperidine-3,4-diol] | 12.6 ± 1.79 L/kg | 85.8 mL/min/kg | 592 ± 60.9 ng·h/mL | 969 ± 104 ng/mL | 1.7 ± 1.5 h | 61.7 ± 2.4% | 641 ± 48.7 ng/mL | 3.86 ± 0.6 h | 3690 ± 71.5 ng·h/mL | 62.3 ± 1.2% | 1700 ± 133 ng/mL | 3.8 ± 0.19 h | 13500 ± 2180 ng·h/mL | 68.3 ± 10.8% | 7140 ± 1360 ng/mL | 2.9 ± 0.11 h | 1 to 4 h | 50 to 100% | Ki [1, 16]: 0.273 ± 0.012 µM; Ki [1, 17]: 0.273 ± 0.012 µM; Ki [1, 18]: 0.067 ± 0.005 µM; IC50 [1, 19]: 0.127 ± 0.01 µM; AUC(0-t) (Rat pharmacokinetics; PO, 10 mg/kg free base, AUC0-24 hr, read-out: AUClast (hr*ng/ml), AUC0-24 hr): 1200 ± 46.4 ng·h/mL
